B1: MIP-1γ (protein, UniProt P51670 22-122, looked up)
C-C motif chemokine 9: QITHATETKEVQSSLKAQQGLEIEMFHMGFQDSSDCCLSYNSRIQCSRFIGYFPTSGGCTRPGIIFISKRGFQVCANPSDRRVQRCIERLEQNSQPRTYKQ
notes: chemokine tested for promoting migration of mature DC
B2: MIP-1α (protein, UniProt P10147 24-92, looked up)
C-C motif chemokine 3: SLAADTPTACCFSYTSRQIPQNFIADYFETSSQCSKPGVIFLTKRSRQVCADPSEEWVQKYVSDLELSA
notes: as for B1
B3: RANTES (protein, UniProt P13501 24-91, looked up)
C-C motif chemokine 5: SPYSSDTTPCCFAYIARPLPRAHIKEYFYTSGKCSNPAVVFVTRKNRQVCANPEKKWVREYINSLEMS
notes: as for B1

Columns and labels:
T cells = assay: In vitro Transwell migration of T cells toward chemokine; assay type: cell-based, BALB/c mice; conditions: relative to mature DCs (FIG. 1a)
Description: (§1) Several chemokines were tested in an in vitro transwell system for their ability to promote migration of mature DC, including MIP-1α, MIP-1γ, MCP-3, RANTES and MIP-3β. In vitro cell migration assays were performed by using 6.5 mm Transwell units (Costar, Cambridge, Mass.). Spleen DC or T cells prepared from BALB/c mice were placed in the upper chamber of the transwell system and chemokine (e.g., MIP-3β) was added to the lower chamber of the transwell system. After 2 hr incubation at 37° C., the migratory cells were harvested from the lower chambers, and the % DC (or T cell) migration was calculated by dividing the output CD11c^+ (or CD3^+) cells by the input CD11c^+ (or CD3^+) cells.

T cell migration = assay: Biological activity of MIP-3β released from EVA rods (T cell chemotaxis assay); assay type: cell-based; conditions: MIP-3β liberated from the EVA polymer, Day 3 samples tested at 33 or 100% (vol/vol)
Description: To determine whether the released MIP-3β was biologically active, the same samples as used above were tested at 33 or 100% (vol/vol) for their biological activities to promote T cell migration (FIG. 1e). DNFB-induced LC emigration was examined by counting the numbers of IA^+ and DEC205^+ epidermal cells after whole mount epidermal staining. See Mummert et al., 2000, J. Exp. Med. 192:769-779.

Spleen DC = assay: In vitro Transwell migration of spleen DC toward chemokine; assay type: cell-based, BALB/c mice; conditions: for % specific migration: spleen cell migration, transwell, 2 hr incubation at 37° C.
Description: as §1

Langerhans cells (LC) = assay: LC entrapment after subcutaneous rod implantation and DNFB painting; assay type: in vivo, BALB/c mice; conditions: 24 hours after DNFB painting over BSA rod implantation sites
Description: After 24 hr pre-incubation in PBS at 37° C., a MIP-3β or BSA rod was cut into 4 short pieces (2.5 mm length) and implanted subcutaneously into a mouse with 200 μl of PBS using a 20G1/2 needle.
In an attempt to induce LC maturation and elevate MIP-3β responsiveness, DNFB was applied over the implantation sites.

Row | Molecule | % specific migration (Spleen DC) [%] | also measured
1 | MIP-3β | 13.2 | concentrations required for recruiting T cells (T cells): much higher concentrations were required; biological activity in the chemotaxis assay (T cell migration): significant biological activities; concentrations promoting migration of mature DCs (Spleen DC; chemokine in lower chamber (FIG. 1a)): 3 to 10 ng/mL; potency in promoting migration of CD11c-positive splenic dendritic cell fractions (Spleen DC; compared among the chemokines tested): most potent
2 | O=[N+]([O-])c1ccc(F)c([N+](=O)[O-])c1 [DNFB, dinitroflourobenzene] |  | reduction in surface LC densities (Langerhans cells (LC)): 25-30%
3 | monocyte chemotactic protein-3 [MCP-3] | 18.2 | 
4 | B1 | 5.4 | 
5 | B2 | 8.2 | 
6 | B3 | 9.1 | 

From US20020131953A1, “In situ langerhans cell vaccine” (UT SOUTHWESTERN MEDICAL CENTER, priority 2001, published 2002)
